How the values were obtained:
Format in all cases: functional
Settings in all cases: read-out: IZ
[1] = tested on: Shigella sonnei; assay: Antimicrobial activity against Shigella sonnei at 10 mg
[2] = tested on: Salmonella; assay: Antimicrobial activity against Salmonella schotmuelleri at 10 mg
[3] = tested on: Klebsiella pneumoniae; assay: Antimicrobial activity against Klebsiella pneumoniae at 10 mg
[4] = tested on: Bacillus cereus; assay: Antimicrobial activity against Bacillus cereus at 10 mg
[5] = tested on: Bacillus subtilis; assay: Antimicrobial activity against Bacillus subtilis at 10 mg
[6] = tested on: Corynebacterium xerosis; assay: Antimicrobial activity against Corynebacterium xerosis at 10 mg
[7] = tested on: Staphylococcus aureus; assay: Antimicrobial activity against Staphylococcus aureus at 10 mg
[8] = tested on: Streptococcus pyogenes; assay: Antimicrobial activity against Streptococcus pyogenes at 10 mg
[9] = tested on: Enterococcus faecalis; assay: Antimicrobial activity against Streptococcus faecalis at 10 mg

Work on CC(=O)O[C@@H]1C[C@H]2C(C)(C)C(=O)C=C[C@]2(C)[C@H]2CC[C@]3(C)C(=CC(=O)O[C@@]3(OCCO)c3ccoc3)[C@@]21C yielded a zone of inhibition at 10000 µg/disc [1] of 16 mm, a zone of inhibition at 10000 µg/disc [2] of 20 mm and a zone of inhibition at 10000 µg/disc [3] of 15 mm. It also gave a zone of inhibition at 10000 µg/disc [4] of 18 mm, a zone of inhibition at 10000 µg/disc [5] of 20 mm and a zone of inhibition at 10000 µg/disc [6] of 17 mm. For the same compound, the zone of inhibition at 10000 µg/disc [7] was 17 mm, the zone of inhibition at 10000 µg/disc [8] was 28 mm and the zone of inhibition at 10000 µg/disc [9] was 22 mm.
